The target in the test is T1, amyloid-β (Aβ1-40) fibrils (Homo sapiens, UniProt P05067).
T1 construct: gene APP; Aβ1-40, aggregated (fibrils)
Nature of the test: fluorescence saturation binding (ΔF at […] nm, fibrils vs soluble Aβ).

T1 sequence (P05067 672-711): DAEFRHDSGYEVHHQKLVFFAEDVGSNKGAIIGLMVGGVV

`Cc1ccc2c(c1)C(C)(C)C1(/C=C/C=C/c3ccc(N(C)C)cc3)NC(=O)CCN21` (stereo not shown) [THK-565, 10a-[(1E,3E)-4-(4-dimethylamino-phenyl)-buta-1,3-dienyl]-8,10,10-trimethyl-3,4,10,10a-tetrahydro-1H-pyrimido[1,2-a]indol-2-one] showed a Kd of 0.156 µM.

A word on the Kd: it is the constant that tells how readily two partners part at equilibrium. A higher Kd goes with weaker binding.

The values above are taken from paper PMC10728248, “A Novel Near-Infrared Fluorescence Probe THK-565 Enables In Vivo Detection of Amyloid Deposits in Alzheimer’s Disease Mouse Model” (Molecular Imaging and Biology, 2023).
